Square brackets hold non-standard residues; d marks the D form. Peptide text beside a SMILES is read from it. * marks the point of attachment. ξ: configuration not given here. ξF = NC(Cc1ccccc1)C(=O)O; Cbz = O=C(OCc1ccccc1)*
Experiments:
[1] = target: Procathepsin L (Homo sapiens) (UniProt P07711); assay: Percent inhibition of human liver cathepsin L at 0.2 uM
[2] = target: Cathepsin B (Bos taurus) (UniProt P07688); assay: Percent inhibition of bovine cathepsin B at 2 uM
[3] = target: Procathepsin L (Homo sapiens) (UniProt P07711); assay: Percent inhibition of human liver cathepsin L at 20 uM
[4] = target: Procathepsin L (Homo sapiens) (UniProt P07711); assay: Percent inhibition of human liver cathepsin L at 2 uM
[5] = target: Cathepsin B (Bos taurus) (UniProt P07688); assay: Percent inhibition of bovine cathepsin B at 0.2 uM
[6] = target: Cathepsin B (Bos taurus) (UniProt P07688); assay: Percent inhibition of bovine cathepsin B at 20 uM
[7] = target: T1, Calpain-1 catalytic subunit (Homo sapiens, UniProt P07384); assay: Inhibitory concentration against human plasma mu-calpain; type: cell-free
T1 sequence (P07384 whole entry): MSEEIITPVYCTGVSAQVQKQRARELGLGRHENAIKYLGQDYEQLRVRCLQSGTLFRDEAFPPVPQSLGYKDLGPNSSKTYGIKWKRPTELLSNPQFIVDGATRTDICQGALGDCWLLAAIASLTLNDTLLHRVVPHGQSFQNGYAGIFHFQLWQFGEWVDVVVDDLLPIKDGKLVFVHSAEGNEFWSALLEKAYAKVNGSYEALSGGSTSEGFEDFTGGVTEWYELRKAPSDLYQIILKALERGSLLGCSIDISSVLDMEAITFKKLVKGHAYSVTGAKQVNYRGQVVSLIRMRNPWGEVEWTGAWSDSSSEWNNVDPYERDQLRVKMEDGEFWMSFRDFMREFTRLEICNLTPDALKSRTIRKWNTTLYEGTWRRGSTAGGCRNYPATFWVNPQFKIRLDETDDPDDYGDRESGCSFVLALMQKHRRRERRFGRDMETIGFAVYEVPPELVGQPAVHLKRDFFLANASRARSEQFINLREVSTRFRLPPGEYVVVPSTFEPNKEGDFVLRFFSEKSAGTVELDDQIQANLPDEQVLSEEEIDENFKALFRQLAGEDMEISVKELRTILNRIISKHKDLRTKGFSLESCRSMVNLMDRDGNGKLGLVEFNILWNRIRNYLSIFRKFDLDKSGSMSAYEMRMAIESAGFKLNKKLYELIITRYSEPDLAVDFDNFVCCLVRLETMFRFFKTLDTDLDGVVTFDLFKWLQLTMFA

Sequence of Procathepsin L (Homo sapiens) (P07711 114-333 limits assumed): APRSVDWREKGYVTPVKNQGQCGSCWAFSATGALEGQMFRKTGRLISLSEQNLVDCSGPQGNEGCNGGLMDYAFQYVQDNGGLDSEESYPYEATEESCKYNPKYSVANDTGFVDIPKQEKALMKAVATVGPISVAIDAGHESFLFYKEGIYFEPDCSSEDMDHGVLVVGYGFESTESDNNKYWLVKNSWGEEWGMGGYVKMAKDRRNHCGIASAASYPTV

SMILES | inhibition [1] [%] | inhibition [2] [%] | inhibition [3] [%] | inhibition [4] [%] | inhibition [5] [%] | inhibition [6] [%] | IC50 [7] [nM]
CC(C)[C@H](NC(=O)OCc1ccccc1)C(=O)NC(C=O)Cc1ccccc1 (stereo partly drawn) (Cbz-Val-[ξF]-aldehyde) | 100 | 96.6 | 100 | 100 | 96 | 100 | –
Cc1c(C(=O)N[C@@H](Cc2ccccc2)C(=O)C(=O)NCCc2ccccc2)oc2ccccc2c1=O | 10.1 | 49 | 98.3 | 78.9 | 0 | 82.1 | 530
Cc1c(C(=O)N[C@@H](Cc2ccccc2)C(=O)C(=O)NC(C)C)oc2cc3c(cc2c1=O)OCCO3 | 1.7 | 0 | 74.9 | 24.6 | 0 | 42.2 | > 20000
Cc1c(C(=O)N[C@@H](Cc2ccccc2)C(=O)C(=O)NCCN2CCOCC2)oc2ccccc2c1=O | 0 | 0 | 69.6 | 9.6 | 0 | 23.9 | 8170
Cc1c(C(=O)N[C@@H](Cc2ccccc2)C(=O)C(=O)NCc2ccccc2)oc2ccccc2c1=O | 8.1 | 21.3 | 95.6 | 65.3 | 0 | 67.9 | 720
Cc1c(C(=O)N[C@@H](Cc2ccccc2)C(=O)C(=O)NCCN2CCOCC2)oc2cc3c(cc2c1=O)OCCO3 | 0 | 0 | 92 | 26.5 | 0 | 20.2 | > 20000
CCc1c(C(=O)N[C@@H](Cc2ccccc2)C(=O)C(N)=O)oc2ccccc2c1=O | 31.9 | 61.2 | 96.6 | 89.2 | 16.9 | 91.5 | 450
Cc1c(C(=O)N[C@@H](Cc2ccccc2)C(=O)C(=O)NCc2ccccc2)oc2cc3c(cc2c1=O)OCCO3 | 12.7 | 18.6 | 95.8 | 83.8 | 0 | 58.2 | 2480
Cc1c(C(=O)N[C@@H](Cc2ccccc2)C(=O)C(=O)NCCc2ccccc2)oc2cc3c(cc2c1=O)OCCO3 | 7.4 | 35.3 | 95.7 | 66.8 | 0 | 41.4 | 4530
Cc1c(C(=O)N[C@@H](Cc2ccccc2)C(=O)C(N)=O)oc2ccccc2c1=O | 22.4 | 63.2 | 98.1 | 81.5 | 14.4 | 91.5 | 240
Cc1c(C(=O)N[C@@H](Cc2ccccc2)C(=O)C(=O)NC(C)C)oc2ccccc2c1=O | 2.1 | 0 | 71.2 | 17.5 | 0 | 42.6 | 5690
Cc1c(C(=O)N[C@@H](Cc2ccccc2)C(=O)C(N)=O)oc2cc3c(cc2c1=O)OCCO3 | 32.5 | 60.8 | 96.6 | 86.3 | 26.3 | 92.2 | 810
NC(=O)C(=O)[C@H](Cc1ccccc1)NC(=O)c1cc(=O)c2ccccc2o1 | 54.2 | 55.4 | 99.1 | 87.7 | 21.5 | 79.9 | 8730

From ChEMBL document CHEMBL1139593, “Synthesis and biological evaluation of chromone carboxamides as calpain inhibitors” (Bioorg Med Chem Lett, 2005)
